We go through 47 compounds from patent US6310095A, “Inhibitors of protein isoprenyl transferases” (University of Pittsburgh, priority 1998, dated 2001).

Counter-ions that a name gives are not always drawn.

The target in the first experiment is T1, protein farnesyltransferase (Rattus norvegicus, UniProt Q02293+Q04631).
T1 construct: Rat brain protein farnesyltransferase activity is measured; from tissue; host or cells: rat brain; purified according to Reiss et al., Cell 62:81-88 (1990), steps one through three
As to the kind of experiment: in vitro inhibition of protein farnesyltransferase (scintillation proximity assay, biotin-K Ras B fragment). It is filed as biochemical. As to conditions: at 1 × 10^-5 M. In outline: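 Rat brain enzyme, purified through three steps, in a scintillation proximity assay kit with biotin-K Ras B fragment substrate at 0.1 mM final. Value is % inhibition of farnesylation.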
Turning to `CSCC[C@H](NC(=O)c1ccc(CNc2ccc3ncccc3c2)cc1-c1ccccc1)C(=O)O` [Example 708], the inhibition at 10 µM came out at 76%.
With `C=C[C@@H](CC1CCCCC1)NCc1ccc(C(=O)N[C@@H](CCSC)C(=O)O)c(-c2ccccc2)c1` [Example 664], at 10 µM the inhibition was 75%.
Take `CSCC[C@H](NC(=O)c1ccc(CNCc2cc(Cl)cc(Cl)c2)cc1-c1ccccc1)C(=O)O` [Example 712]: the inhibition at 10 µM turned out to be 69%.
On the same count and under the same terms, for `CSCC[C@H](NC(=O)c1ccc(NC(=O)CCN)cc1-c1ccccc1)C(=O)O` [Example 750] the value was 44%.
Take `CSCC[C@H](NC(=O)c1ccc(CNc2cc(C)on2)cc1-c1ccccc1)C(=O)O` [Example 372]: the inhibition at 10 µM was determined as 69%.

The same experiment, now with this note: at 1 × 10^-6 M.
Take `CSCC[C@H](NC(=O)c1ccc(CN(C)C(CC2CCCCC2)C(=O)N2CCCCC2)cc1-c1ccccc1C)C(=O)O` (some centres unmarked) [Example 301]: the “% inhibition of farnesyltransferase” value turned out to be 98%.
For the compound `CSCC[C@H](NC(=O)c1ccc(COC2CCN(C(=O)OC(C)(C)C)CC2)cc1-c1ccccc1C)C(=O)[O-].[Li+]` [Example 808], the “% inhibition of farnesyltransferase” value was 88%.
Turning to `CCCCON(CCC1CCCCC1)Cc1ccc(C(=O)N[C@@H](CCS(C)(=O)=O)C(=O)O)c(-c2ccccc2C)c1` [Example 298], the “% inhibition of farnesyltransferase” value was 43%.
On the same count and under the same terms, for `CSCC[C@H](NC(=O)c1ccc(COCc2ccc(-c3ccc(F)cc3)o2)cc1-c1cccc2ccccc12)C(=O)[O-].[Li+]` [Example 868] the value was 89%.
Still for that read-out and setting: to `CSCC[C@H](NC(=O)c1ccc(CNC(C)(C)CC2CCCCC2)cc1-c1ccccc1C)C(=O)O` [Example 308] belongs 62%; to `Cc1ccccc1-c1cc(CCc2ccc(Oc3ccccc3)cc2)ccc1C(=O)N[C@@H](CC[S+](C)[O-])C(=O)O` (some centres unmarked) [Example 463], 91%.
Turning to `CSCC[C@H](NC(=O)c1ccc(CCCCC2CCCCC2)cc1-c1ccccc1C)C(=O)O` [Example 478], the “% inhibition of farnesyltransferase” value was found to be 98%.
The same measure, in the same setting: to `CSCC[C@H](NC(=O)c1ccc(/C=C/c2cnccn2)cc1-c1ccccc1C)C(=O)O` [Example 495] belongs 95%; to `CSCC[C@H](NC(=O)c1ccc(N2CC(=O)NNC2=O)cc1-c1ccccc1)C(=O)O` [Example 224], 41%; to `CSCC[C@H](NC(=O)c1ccc(CNC(C)(C)Cc2ccccc2)cc1-c1ccccc1C)C(=O)O` [Example 307], 82%.
Same read-out and setting: to `Cc1ccccc1-c1cc(CN(C2CC2)C2(CC3CCCCC3)CCC2)ccc1C(=O)N[C@@H](CCS(C)(=O)=O)C(=O)O` [Example 334] belongs 93%.
With `CSCC[C@H](NC(=O)c1ccc(OCCCC2CCCCC2)cc1-c1ccccc1C)C(=O)O` [Example 564], the “% inhibition of farnesyltransferase” value came to 98%.

Staying with this experiment, now noted: at 1 × 10^-6 M; read-out: % inhibition of farnesyltransferase.
`CSCC[C@H](NC(=O)c1ccc(CN(CCO)c2ccccc2)cc1-c1ccccc1)C(=O)O` [Example 505]: the inhibition at 1 µM was found to be 72%.
For `CSCC[C@H](NC(=O)c1ccc(CN(C)CC(O)CO)cc1-c1ccccc1C)C(=O)O` (some centres unmarked) [Example 719], the inhibition at 1 µM was 90%.
On the same count and under the same terms, for `CSCC[C@H](NC(=O)c1ccc(CNCCSc2ccccc2)cc1-c1ccccc1)C(=O)O` [Example 667] the value was 83%.
Consider `CSCC[C@H](NC(=O)c1ccc(NC(=O)c2cnccc2C(F)(F)F)cc1-c1ccccc1C)C(=O)O` [Example 481, N-[4-N-(4-trifluoromethylnicotinoyl)amino-2-(2-methylphenyl)benzoyl]methionine lithium salt], for which the inhibition at 1 µM amounted to 95%.
Take `CSCC[C@H](NC(=O)c1ccc(CN(Cc2ccccc2)c2ccccc2C(C)=O)cc1-c1ccccc1C)C(=O)O` [Example 844, N-[4-N-(N-benzyl-N-(2-acetylphenyl)aminomethyl)-2-(2-methylphenyl)benzoyl]methionine lithium salt]: the inhibition at 1 µM worked out at 92%.
For `COc1ccccc1CNCc1ccc(C(=O)N[C@@H](CCSC)C(=O)O)c(-c2ccccc2)c1` [Example 650], the inhibition at 1 µM came to 68%.
For `CSCC[C@H](NC(=O)c1ccc(CNc2ccc(-c3nc4ccccc4s3)cc2)cc1-c1ccccc1)C(=O)O` [Example 703], the inhibition at 1 µM was found to be 40%.
With `CSCC[C@H](NC(=O)c1ccc(CN(Cc2ccccc2)Cc2ccco2)cc1-c1ccccc1C)C(=O)O` [Example 504, N-[4-N-(furan-2-ylmethyl)-N-benzylaminomethyl-2-(2-methylphenyl)benzoyl]methionine lithium salt], the inhibition at 1 µM was found to be 90%.
For `CSCC[C@H](NC(=O)c1ccc(NC(=O)Cc2ccc(C)cc2)cc1-c1ccccc1C)C(=O)O` [Example 541, N-[4-N-(4'-methylphenylacetyl)amino-2-(2-methylphenyl)benzoyl]methionine lithium salt], the inhibition at 1 µM is 37%.
Same read-out and setting: to `CSCC[C@H](NC(=O)c1ccc(CN(Cc2ccc(C(F)(F)F)cc2)c2ccccc2)cc1-c1ccccc1C)C(=O)O` [Example 782, N-[4-N-(N-phenyl-N-(4-trifluoromethylbenzyl)aminomethyl)-2-(2-methylphenyl)-benzoyl]methionine lithium salt] belongs 96%.

The experiment is the same for the next values; noted with them: at 1 × 10^-7 M.
On to `CSCC[C@H](NC(=O)c1ccc(COCc2ccc(Br)o2)cc1-c1ccccc1C)C(=O)[O-].[Li+]` [Example 434], for which the “% inhibition of farnesyltransferase” value is on record as 93%.
Turning to `CSCC[C@H](NC(=O)c1ccc(CSc2ccc(C)cc2C)cc1-c1ccccc1C)C(=O)O` [Example 741], the “% inhibition of farnesyltransferase” value is listed as 89%.
Same read-out and setting: for `CCCCC(OCc1ccc(C(=O)N[C@@H](CCSC)C(=O)[O-])c(-c2ccccc2C)c1)c1ccco1.[Li+]` (some centres unmarked) [Example 825] the value was 79%.
Regarding `CSCC[C@H](NC(=O)c1ccc(/C=C/c2ccc(Oc3cccc([N+](=O)[O-])c3)cc2)cc1-c1ccccc1C)C(=O)O` [Example 861], the “% inhibition of farnesyltransferase” value stood at 65%.
As for `CSCC[C@H](NC(=O)c1ccc(COCCc2ccc(-c3ccc(Cl)cc3)o2)cc1-c1ccccc1C)C(=O)[O-].[Li+]` [Example 536], the “% inhibition of farnesyltransferase” value is given as 79%.
Regarding `CSCC[C@H](NC(=O)c1ccc(COc2ccc3ccccc3c2)cc1-c1ccccc1C)C(=O)O` [Example 573], the “% inhibition of farnesyltransferase” value is recorded as 72%.
On the same count and under the same terms, for `CSCC[C@H](NC(=O)c1ccc(COCCCCc2ccccc2)cc1-c1ccccc1C)C(=O)O` [Example 601] the value was 92%; for `CSCC[C@H](NC(=O)c1ccc(CSc2nnc(N)s2)cc1-c1ccccc1C)C(=O)O` [Example 734], 49%.

The same experiment, now with this note: at 1 × 10^-7 M; read-out: % inhibition of farnesyltransferase.
On to `CSCC[C@H](NC(=O)c1ccc(CN[C@H](/C=C\CC(C)C)CC2CCCCC2)cc1-c1ccccc1C)C(=O)O` [Example 526, N-[4-N-(1-Cyclohexyl-6-methylhept-3-en-2-yl)aminomethyl-2-(2-methylphenyl)benzoyl]methionine lithium salt], for which the inhibition at 0.1 µM was 96%.
Regarding `CSCC[C@H](NC(=O)c1ccc(CN(Cc2ccccc2)Cc2nccs2)cc1-c1ccccc1C)C(=O)O` [Example 548, N-[4-N-benzyl-N-(thiazol-2-ylmethyl)aminomethyl-2-(2-methylphenyl)benzoyl]methionine], the inhibition at 0.1 µM amounted to 86%.
Take `CSCC[C@H](NC(=O)c1ccc(CN[C@@H](CO)C2CCCCC2)cc1-c1ccccc1C)C(=O)O` [Example 604, N-[4-(2-cyclohexylethan-1-ol-2-ylaminomethyl)-2-(2-methylphenyl)benzoyl]methionine Lithium Salt]: the inhibition at 0.1 µM is 86%.
`CSCC[C@H](NC(=O)c1ccc(CNC(Cc2ccccc2)Cc2ccccc2)cc1-c1ccccc1C)C(=O)O` [Example 523, N-[4-N-(1,3-diphenylpropan-2-yl)aminomethyl-2-(2-methylphenyl)benzoyl]methionine lithium salt]: the inhibition at 0.1 µM was determined as 97%.

Staying with this experiment, now noted: at 1 × 10^-8 M.
Regarding `CSCC[C@H](NC(=O)c1ccc(COCc2ccc(-c3ccc(N(C)C)cc3)o2)cc1-c1ccccc1C)C(=O)O` [Example 821], the “% inhibition of farnesyltransferase” value came to 75%.
With `CSCC[C@H](NC(=O)c1ccc(COCc2ccccc2C(C)C)cc1-c1ccccc1C)C(=O)[O-].[Li+]` [Example 938], the “% inhibition of farnesyltransferase” value is reported as 61%.

The experiment is the same for the next values; noted with them: at 1 × 10^-8 M; read-out: % inhibition of farnesyltransferase.
Take `CCSC[C@H](CCc1ccccc1)NCc1ccc(C(=O)N[C@@H](CCSC)C(=O)O)c(-c2ccccc2C)c1` [Example 995]: the inhibition at 0.01 µM turned out to be 92%.
For the compound `CSCC[C@H](NC(=O)c1ccc(CN(CCC2CCCCC2)S(=O)(=O)c2ccccc2)cc1-c1ccccc1C)C(=O)O` [Example 612, N-[4-(N-benzenenesulfonyl-N-(2-cyclohexylethyl)aminomethyl)-2-(2-methylphenyl)benzoyl]methionine Lithium Salt], the inhibition at 0.01 µM was 96%.
Same read-out and setting: for `CSCC[C@H](NC(=O)c1ccc(CN[C@H](CSc2ccccc2C)CC2CCCCC2)cc1-c1ccccc1C)C(=O)O` [Example 767, lithium salt] the value was 97%.
Still for that read-out and setting: for `CSCC[C@H](NC(=O)c1ccc(CN(C(C)=O)C(CC2CCCCC2)CC2CCCCC2)cc1-c1ccccc1C)C(=O)O` [Example 909, N-[4-(N-acetyl-N-(1,3-Dicyclohexylpropan-2-yl)aminomethyl)-2-(2-methylphenyl)-benzoyl]methionine] the value was 79%.

Still in this experiment, the particulars now being: read-out: % inhibition of farnesyltransferase.
For `CSCC[C@H](NC(=O)c1ccc(CN(CCC2CCCCC2)C(C)=O)cc1-c1ccccc1C)C(=O)O` [Example 609, N-[4-(N-acetyl-N-(2-cyclohexylethyl)aminomethyl)-2-(2-methylphenyl)benzoyl]methionine Lithium Salt], the inhibition at 0.1 µM came out at 95%.
For `CSCC[C@H](NC(=O)c1ccc(CN(Cc2ccccc2)c2ccccc2SC)cc1-c1ccccc1C)C(=O)O` [Example 850, N-[4-(N-benzyl-N-(2-methylthiophenyl)aminomethyl)-2-(2-methylphenyl)benzoyl]methionine lithium salt], the inhibition at 1 µM is 90%.

In general, inhibition refers to the change of the read-out against control, counted positive when it falls.
